US20240228474A1, “ANTIBACTERIAL COMPOUND” (DISCUVA LIMITED, priority 2021, published 2024)

What was measured:
[1] = test system: E. coli BAA-2469 (NDM-1 positive); test: Murine bacteraemia / bloodstream infection proof-of-concept study, IV bolus; type: in vivo; conditions: single dose IV bolus 20 mg/kg, 9 h from initial infection
Experimental: (§1) Compound (I) and comparative compound (III) were evaluated in proof-of-concept studies in murine models for the treatment of a respiratory infection with Gram-negative bacteria of the order Enterobacterales, a bacteraemia or bloodstream infection with Gram-negative bacteria of the order Enterobacterales, and a urinary tract infection with Gram-negative bacteria of the order Enterobacterales. Each dot, triangle or square indicator represents a single mouse. LOD refers to the limit of detection of the bacteria. […] Each of the proof-of-concept studies was carried out separately. By vehicle is meant pharmaceutically acceptable carrier or excipient.
For the proof-of-concept study for the treatment of a bacteraemia or bloodstream infection with Gram-negative bacteria of the order Enterobacterales, CD-1 mice were infected with human urine isolate E. coli BAA-2469 (NDM-1 positive). One hour after infection (‘pre-treatment’ in FIG. 3), a vehicle (20% hydroxypropyl β cyclodextrin) containing no compound (I) or comparative compound (III), or a vehicle (20% hydroxypropyl β cyclodextrin) containing compound (I) or comparative compound (III), was administered by as a single dose IV bolus at 20 mg/kg.

E. coli UT189 = test: Murine urinary tract infection proof-of-concept study, IV bolus; type: in vivo; conditions: IV bolus 20 mg/kg TID over 3 days, 96 h after initial infection
Experimental: as §1, with “excipient. For the proof-of-concept study for the treatment of a urinary tract infection with Enterobacterales, female C3H/HeN mice were infected with E. coli UT189. Twenty-four hours after infection (‘pre-treatment’ in FIGS. 4a-c), a vehicle (20% hydroxypropyl β cyclodextrin) containing no compound (I) or comparative compound (III), or a vehicle (20% hydroxypropyl β cyclodextrin) containing compound (I) or comparative compound (III), was administered by IV bolus of 20 mg/kg, TID (8 hrs apart), over 3 days.” for “excipient.”

[2] = Volume of distribution (Vss) from mouse plasma profiles; type: in vivo; conditions: mice, 5 mg/kg IV bolus, 2 compartment model
Experimental: The volume of distribution (Vss) of compound (I) and comparative compounds (II) and (III) was determined from analysis of plasma concentration time profiles obtained from rodent species (mice), following 5 mg/kg IV bolus administration respectively. The volume of distribution was obtained by analysing the rodent plasma profiles for compound (I) and comparative compounds (II) and (III) using a 2 compartment IV bolus model in PK Solver (Excel). The volume of distribution data for compound (I) and comparative compound (II) was collected in separate experiments carried out on different days, and compared in Table 6.

[3] = test system: Klebsiella pneumoniae ATCC 43816; test: Murine respiratory infection proof-of-concept study, IV bolus; type: in vivo; conditions: 26 h from initial infection
Experimental: as §1, with “excipient. For the proof-of-concept study for the treatment of a respiratory infection caused or exacerbated by Gram-negative bacteria of the order Enterobacterales, CD-1 mice were infected with Klebsiella pneumoniae ATCC 43816. Two hours after infection (‘pre-treatment’ in FIG. 2), a vehicle (20% hydroxypropyl β cyclodextrin) containing no compound (I) or comparative compound (III), or a vehicle (20% hydroxypropyl β cyclodextrin) containing compound (I) or comparative compound (III), was administered by IV bolus at 20 mg/kg, TID (8 hrs apart), over one day.” for “excipient.”

[4] = test system: Proteus mirabilis (DSM 4479); test: MIC by broth microdilution (CLSI); type: cell-based; conditions: DSM4479
Experimental: Minimum Inhibitory Concentrations (MICs) versus Escherichia coli (NCTC 13441) and Klebsiella pneumoniae (NCTC 13438) (planktonic bacteria) were determined by the broth microdilution procedure in line with the guidelines of the Clinical and Laboratory Standards Institute (Clinical and Laboratory Standards Institute. Methods for Dilution Antimicrobial Susceptibility Tests for Bacteria That Grow Aerobically, Approved Standard-Eleventh Edition, CLSI document M07, 11 Jan. 2018). The broth dilution method involved a two-fold serial dilution of compounds in 96-well microtitre plates, giving a final concentration range of 0.39-200 μM and a maximum final concentration of 2% DMSO. The bacterial strains tested were Escherichia coli (NCTC 13441) and Klebsiella pneumoniae (NCTC 13438). Strains were grown in cation-adjusted Müller-Hinton broth or on Luria Bertani agar at 37° C. in an ambient atmosphere. The MIC (μM) was determined as the lowest concentration of compound that inhibits growth following a 20-24 hour incubation period.
Minimum Inhibitory Concentrations (MICs) versus Proteus mirabilis (DSM 4479) were determined for compound (I) and comparative compounds (II) and (III) using the methodology outlined above.

[5] = Lipophilicity, Log P measured with SiriusT3 (octanol titration); type: physicochemical; conditions: octanol / aqueous sample solution
Experimental: Log P values of compound (I) and comparative compound (III) were measured using the SiriusT3 instrument from Sirius Analytical by performing an acid-based titration and measuring the shift in pKa when the sample solution is in contact with an immiscible solvent (octanol). Log P for the comparative compound (II) was calculated using Marvin (physico-chemical calculation software). The lipophilicity data for compound (I) and comparative compounds (II) and (III) was collected in separate experiments carried out on different days, and compared in Table 5.

Vd [2] [L/kg] | MIC [4] [µM] | logP [5] | SMILES | reduction of bacterial burden in the blood compared to vehicle ([1]; CD-1 mice) [log] | bacterial burden (CFU) in the blood at end of study [1] | reduction of bacterial burden in the bladder compared to vehicle (E. coli UT189) [log] | reduction of bacterial burden in the urine compared to vehicle (E. coli UT189; female C3H/HeN mice) [log] | reduction of bacterial burden in the lung compared to vehicle ([3]; CD-1 mice, IV bolus 20 mg/kg TID over one day) [log] | CFU value in lung relative to stasis level ([3]; IV bolus 20 mg/kg TID)
7.9 | > 200 | 1.03 | Cc1cnccc1-c1[nH]c(N)nc1-c1ccc2c(c1)N(C(=O)CN)CCO2 [Comparative Compound (III), reference compound] | 4.86 | remained on or above the stasis level | 3.71 | 3.36 | 4.16 | remained relatively close to the stasis level
7.7 | > 200 | – | Cc1cc(-c2[nH]c(N)nc2-c2ccc3c(c2)N(C(=O)CN)CCO3)ccn1 [Comparative Compound (II)] | – | – | – | – | – | –
